Square brackets hold non-standard residues; d marks the D form. Peptide text beside a SMILES is read from it. * marks the point of attachment. Acetyl(3-pyridyl) = O=C(Cc1cccnc1)*; Pyrazinecarbonyl = O=C(c1cnccn1)*; Quinaldoyl = O=C(c1ccc2ccccc2n1)*; hPhe = N[C@@H](CCc1ccccc1)C(=O)O; Cha = N[C@@H](CC1CCCCC1)C(=O)O; Phg = N[C@H](C(=O)O)c1ccccc1; Tle = CC(C)(C)[C@H](N)C(=O)O; NMeV = CN[C@H](C(=O)O)C(C)C; Nicotinoyl = O=C(c1cccnc1)*; X19 = O=C(Cc1ccc(Br)cc1)*; Morpholide = C1CN(*)CCO1; X7 = O=C(CO*)OCc1ccccc1; PhAc = O=C(Cc1ccccc1)*; X1 = CCCCCCCCCCCCCCO*; Inp = O=C(O)C1CCNCC1; NHBn = c1ccc(CN*)cc1; Bz = O=C(c1ccccc1)*

One assay deals with VLA-4 (Homo sapiens, UniProt P05556+P13612). Description: In vitro binding inhibition of 51Cr-labeled Jurkat cells to solid phase-bound CS-1 compound (SEQ ID NO:1). The format is cell-based. On the set-up: inflammatory cells that contain the VLA-4 receptor [Jurkat cells; host or cells: Jurkat (human T lymphoblastic line).
VLA-4, sequence (P13612 34-1032): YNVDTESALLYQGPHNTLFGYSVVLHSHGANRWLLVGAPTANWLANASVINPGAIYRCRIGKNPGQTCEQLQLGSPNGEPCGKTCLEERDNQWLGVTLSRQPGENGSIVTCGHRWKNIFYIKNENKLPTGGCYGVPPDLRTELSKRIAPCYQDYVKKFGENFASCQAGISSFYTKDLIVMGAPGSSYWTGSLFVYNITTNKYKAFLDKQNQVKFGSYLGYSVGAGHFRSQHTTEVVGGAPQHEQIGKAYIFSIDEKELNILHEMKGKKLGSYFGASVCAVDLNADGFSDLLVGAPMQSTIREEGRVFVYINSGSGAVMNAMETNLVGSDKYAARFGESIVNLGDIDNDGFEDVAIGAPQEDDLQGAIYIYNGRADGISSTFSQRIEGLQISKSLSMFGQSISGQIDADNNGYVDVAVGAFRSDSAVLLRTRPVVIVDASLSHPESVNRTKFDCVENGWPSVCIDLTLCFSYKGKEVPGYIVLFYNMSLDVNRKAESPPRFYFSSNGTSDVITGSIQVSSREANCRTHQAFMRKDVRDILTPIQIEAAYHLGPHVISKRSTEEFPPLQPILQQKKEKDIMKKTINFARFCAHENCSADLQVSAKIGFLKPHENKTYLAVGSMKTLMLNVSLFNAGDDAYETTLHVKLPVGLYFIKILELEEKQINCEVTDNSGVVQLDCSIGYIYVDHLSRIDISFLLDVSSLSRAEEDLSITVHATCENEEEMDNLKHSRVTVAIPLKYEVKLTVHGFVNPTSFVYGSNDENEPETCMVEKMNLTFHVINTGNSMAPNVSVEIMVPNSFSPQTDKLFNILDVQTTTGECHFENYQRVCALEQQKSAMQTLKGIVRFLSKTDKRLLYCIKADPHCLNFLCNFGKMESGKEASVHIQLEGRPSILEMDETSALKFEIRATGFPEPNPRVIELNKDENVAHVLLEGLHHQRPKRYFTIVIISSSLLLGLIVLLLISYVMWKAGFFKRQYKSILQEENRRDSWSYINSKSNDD
VLA-4, sequence (P05556 21-798): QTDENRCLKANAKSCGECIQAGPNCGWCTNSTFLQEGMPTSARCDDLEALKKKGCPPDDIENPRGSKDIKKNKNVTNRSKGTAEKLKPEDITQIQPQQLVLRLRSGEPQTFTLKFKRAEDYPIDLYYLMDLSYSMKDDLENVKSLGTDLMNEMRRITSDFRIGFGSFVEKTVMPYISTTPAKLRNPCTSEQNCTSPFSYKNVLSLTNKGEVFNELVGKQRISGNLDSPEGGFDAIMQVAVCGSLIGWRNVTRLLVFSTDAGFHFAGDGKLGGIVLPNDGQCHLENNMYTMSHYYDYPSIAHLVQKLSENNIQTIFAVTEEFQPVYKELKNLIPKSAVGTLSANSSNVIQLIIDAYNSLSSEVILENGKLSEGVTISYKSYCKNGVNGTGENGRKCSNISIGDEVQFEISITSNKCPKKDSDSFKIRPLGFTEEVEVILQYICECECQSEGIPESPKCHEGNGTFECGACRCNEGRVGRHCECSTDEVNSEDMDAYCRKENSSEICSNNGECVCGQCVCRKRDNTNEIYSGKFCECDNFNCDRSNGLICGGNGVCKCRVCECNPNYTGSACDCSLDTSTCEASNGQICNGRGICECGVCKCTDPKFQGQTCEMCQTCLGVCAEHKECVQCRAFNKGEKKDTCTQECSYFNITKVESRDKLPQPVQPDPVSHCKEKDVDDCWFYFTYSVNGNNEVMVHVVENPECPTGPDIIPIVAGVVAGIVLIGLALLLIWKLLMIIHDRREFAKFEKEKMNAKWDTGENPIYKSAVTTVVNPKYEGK
Conditions: not given
In outline: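 51Cr-labeled human Jurkat cells were preincubated with compound 30 min at about 22° C, then allowed to bind to wells coated with CS-1 peptide or CS-1-OVA for 30 min at 37° C. After washing, bound cells were lysed with SDS and counted. IC50 is the concentration halving binding, normalized to SEQ ID NO: 3.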
Consider `CC(C)C[C@H](NC(=O)c1cccnc1)C(=O)N[C@@H](CC(=O)O)C(=O)N[C@@H](Cc1ccccc1)C(=O)N1CCC[C@@H]1C(N)=O` [896.55] (Nicotinoyl-LDF[dP]-NH2), for which the “Relative Potency” value came to 105. Turning to `NC(=O)[C@H]1CCCN1C(=O)[C@H](Cc1ccccc1)NC(=O)[C@H](CC(=O)O)NC(=O)CCCCC1CCCCC1` [1056.08], the “Relative Potency” value was found to be 0.

With `CC(=O)N[C@@H](CO)C(=O)N[C@@H](Cc1ccccc1)C(=O)N[C@@H](CC(=O)O)C(=O)N[C@@H](Cc1ccccc1)C(=O)N[C@@H](CO)C(N)=O` [951.46] (Ac-SFDFS-NH2), the “Relative Potency” value is “.22”.

For `CC(C)C[C@H](NC(=O)[C@@H](N)Cc1ccccc1)C(=O)N[C@@H](CC(=O)O)C(=O)N[C@@H](Cc1ccccc1)C(=O)N1CCC[C@@H]1C(N)=O` [896.27] (H-FLDF[dP]-NH2), the “Relative Potency” value was 16.9.

Regarding `CC[C@H](C)[C@H](N)C(=O)N[C@@H](CC(C)C)C(=O)N[C@@H](CC(=O)O)C(=O)N(C)[C@H](C(=O)N1CCC[C@H]1C(N)=O)C(C)C` [926.18] (H-ILD[NMeV]P-NH2), the “Relative Potency” value worked out at 0. Same read-out and setting: the same measure for `CC(C)C[C@H](NC(=O)Cc1cccnc1)C(=O)N[C@@H](CC(=O)O)C(=O)N[C@@H](Cc1ccccc1)C(=O)N1CCC[C@@H]1C(N)=O` [951.22] ({Acetyl(3-pyridyl)}-LDF[dP]-NH2): 387. Still for that read-out and setting: the same measure for `CC(C)C[C@H](NC(=O)Cc1ccc(Br)cc1)C(=O)N[C@@H](CC(=O)O)C(=O)N[C@@H](Cc1ccccc1)C(=O)N1CCC[C@@H]1C(N)=O` [951.08] (X19-LDF[dP]-NH2): 6.26. On the same count and under the same terms, the same measure for `CC(C)C[C@H](NC(=O)c1ccc2ccccc2n1)C(=O)N[C@@H](CC(=O)O)C(=O)N[C@@H](Cc1ccccc1)C(=O)N1CCC[C@@H]1C(N)=O` [951.06] (Quinaldoyl-LDF[dP]-NH2): 8.97; for `CC(C)C[C@H](NC(=O)c1cnccn1)C(=O)N[C@@H](CC(=O)O)C(=O)N[C@@H](Cc1ccccc1)C(=O)N1CCC[C@@H]1C(N)=O` [951.02] (Pyrazinecarbonyl-LDF[dP]-NH2): 19.4.

Consider `CC(C)C[C@H](NC(=O)c1ccncc1)C(=O)N[C@@H](CC(=O)O)C(=O)N[C@@H](Cc1ccc(O)cc1)C(=O)N1CCCCC1` [1045.01], for which the “Relative Potency” value was found to be 23.8.

Take `NC(=O)[C@H]1CCCN1C(=O)[C@H](Cc1ccccc1)NC(=O)[C@H](CC(=O)O)NC(=O)CCCCCC1CCCCC1` [1056.07]: the “Relative Potency” value is 0. The same measure, in the same setting: the result for `NC(=O)[C@H]1CCCN1C(=O)[C@H](Cc1ccccc1)NC(=O)[C@H](CC(=O)O)NC(=O)CCCCC[N+](=O)[O-]` [1056.11] reads 0; that for `CC(C)C[C@H](NC(=O)[C@H](N)Cc1ccccc1)C(=O)N[C@@H](CC(=O)O)C(=O)N[C@H](C(=O)N1CCC[C@@H]1C(N)=O)C(C)C` [926.05] (H-[dF]LDV[dP]-NH2), “.94”. For the compound `NC(=O)[C@H]1CCCN1C(=O)[C@H](Cc1ccccc1)NC(=O)[C@H](CC(=O)O)NC(=O)CC12CC3CC(CC(C3)C1)C2` [1056.13], the “Relative Potency” value was found to be 0. On the same count and under the same terms, the same measure for `Cc1cccc(C(=O)N[C@@H](CC(C)C)C(=O)N[C@@H](CC(=O)O)C(=O)N[C@H](C(=O)N2CCC[C@@H]2C(N)=O)C(C)C)c1C` [896.38]: 6.57; for `CC(C)[C@@H]1CC[C@@H](C)C[C@H]1OCC(=O)N[C@@H](CC(=O)O)C(=O)N[C@@H](Cc1ccccc1)C(=O)N1CCC[C@@H]1C(N)=O` [1056.06]: 0; for `CC(C)CN(CC(=O)Nc1ccccc1)C(=O)CN(CC(=O)O)C(=O)CNC(=O)C1CCCC1` [1032.01]: “.42”. Still for that read-out and setting: the same measure for `CC(C)C[C@@H](C(=O)N[C@@H](CC(=O)O)C(=O)N[C@@H](Cc1ccccc1)C(=O)N1CCCCC1)N1C(=O)N[C@@H](c2ccccc2)C1=O` [1047.02]: 3.13.

The assay is the same for the next values; noted with them: binding inhibition potency relative to standard compound of SEQ ID NO:3 = 1 (normalized IC50); about one-tenth or less assigned zero.
`CC(C)C[C@H](NC(=O)Cc1ccccc1)C(=O)N[C@@H](CC(=O)O)C(=O)NCc1ccccc1` [997.02] (PhAc-Leu-Asp-NHBn): the “Relative Potency” value amounted to 18.8. On the same count and under the same terms, the same measure for `CC(C)C[C@H](NC(=O)Cc1ccccc1)C(=O)N[C@@H](CC(=O)O)C(=O)N[C@@H](CCc1ccccc1)C(=O)N1CCC[C@@H]1C(N)=O` [1062.03] (PhAc-LD[hPhe][dP]-NH2): 93.9; for `CC(C)C[C@H](NC(=O)c1ccccc1)C(=O)N[C@@H](CC(=O)O)C(=O)N[C@H](C(=O)N1CCC[C@@H]1C(N)=O)C(C)C` [926.02]: 9.6. On the same count and under the same terms, the same measure for `CC(C)C[C@H](NC(=O)Cc1ccccc1)C(=O)N[C@@H](CC(=O)O)C(=O)N[C@H](C(=O)N1CCC[C@@H]1C(N)=O)C(C)C` [896.39]: 47.5.

Regarding `CC(C)C[C@H](NC(=O)Cc1ccccc1)C(=O)N[C@@H](CC(=O)O)C(=O)N[C@@H](Cc1ccccc1)C(=O)N1CCN(CC(N)=O)CC1` [1111.09], the “Relative Potency” value is listed as 324. The same measure, in the same setting: the same measure for `CC(C)C[C@H](NC(=O)Cc1ccccc1)C(=O)N[C@@H](CC(=O)O)C(=O)N[C@@H](Cc1ccc(O)cc1)C(=O)N1CCOCC1` [1045.02] (PhAc-Leu-Asp-Tyr-Morpholide): 313; for `CC(C)C[C@H](NC(=O)/C=C/c1ccccc1)C(=O)N[C@@H](CC(=O)O)C(=O)N[C@H](C(=O)N1CCC[C@@H]1C(N)=O)C(C)C` [896.41]: 1.97. On the same count and under the same terms, the same measure for `NC(=O)[C@H]1CCCN1C(=O)[C@H](Cc1ccccc1)NC(=O)[C@H](CC(=O)O)NC(=O)[C@H](CC1CCCCC1)NC(=O)c1ccccc1` [896.31] (Bz-[Cha]DF[dP]-NH2): 11; for `CC(C)C[C@H](NC(=O)Cc1ccccc1)C(=O)N[C@@H](CC(=O)O)C(=O)N[C@@H]1CCCCNC1=O` [1043.01]: 17.2. Take `CC(C)C[C@H](NC(=O)Cc1ccccc1)C(=O)N[C@@H](CC(=O)O)C(=O)N[C@H](C(=O)N1CCC[C@@H]1C(N)=O)c1ccccc1` [896.69] (PhAc-LD[Phg][dP]-NH2): the “Relative Potency” value worked out at 61. Take `CC(C)C[C@H](NC(=O)Cc1ccccc1)C(=O)N[C@@H](CC(=O)O)C(=O)NC1CCCCNC1=O` (stereo partly drawn) [1043.02]: the “Relative Potency” value was determined as 26.8. Take `CC(C)C[C@H](NC(=O)Cc1ccccc1)C(=O)N[C@@H](CC(=O)O)C(=O)N[C@@H](Cc1ccccc1)C(=O)N1CCN(CCC(=O)O)CC1` [1190.03]: the “Relative Potency” value worked out at 998. The same measure, in the same setting: the same measure for `O=C(O)C[C@H](NC1CCN(C(=O)Cc2ccccc2)CC1)C(=O)N[C@@H](Cc1ccccc1)C(=O)N1CCCC1` [992.01]: 0. Same read-out and setting: the result for `CC(C)C[C@H](NC(=O)Cc1ccccc1)C(=O)N[C@@H](CC(=O)O)C(=O)N[C@@H](Cc1ccccc1)C(=O)NCC(=O)N1CCOCC1` [1051.04] (PhAc-LDFG-Morpholide) reads 3.13; that for `CC(C)C[C@H](NC(=O)Cc1ccccc1)C(=O)N[C@@H](CS)C(=O)N[C@@H](Cc1ccccc1)C(=O)N1CCC[C@@H]1C(N)=O` [896.59] (PhAc-LCF[dP]-NH2), 0; that for `CC(C)C[C@H](NC(=O)Cc1ccccc1)C(=O)N[C@@H](CC(=O)O)C(=O)N[C@@H](Cc1ccccc1)C(=O)N1CCS(=O)(=O)CC1` [1111.03], 1010.

Take `CC(C)C[C@H](NC(=O)Cc1ccccc1)C(=O)N[C@@H](CC(=O)O)C(=O)N[C@H](C(=O)N1CCC[C@@H]1C(N)=O)C(C)(C)C` [896.56] (PhAc-LD[Tle][dP]-NH2): the “Relative Potency” value came to 1.72.

As to `CC(C)C[C@H](NC(=O)Cc1ccccc1)C(=O)N[C@@H](CC(=O)O)C(=O)NN1Cc2ccccc2NC1=O` [997.17], the “Relative Potency” value turned out to be 1.35.

Regarding `CC(C)C[C@@H](CN[C@@H](CC(=O)O)C(=O)N[C@@H](Cc1ccccc1)C(=O)N1CCCCC1)NC(=O)Cc1ccccc1` [1041.01], the “Relative Potency” value is given as 0.

In the case of `CC(C)C[C@H](NC(=O)Cc1ccccc1)C(=O)N[C@@H](CS(N)(=O)=O)C(=O)N[C@@H](Cc1ccccc1)C(=O)N1CCCCC1` [1026.08], the “Relative Potency” value turned out to be 0. Still for that read-out and setting: the result for `CC(C)C[C@H](NC(=O)c1cccc2ccccc12)C(=O)N[C@@H](CC(=O)O)C(=O)N[C@H](C(=O)N1CCC[C@@H]1C(N)=O)C(C)C` [896.43] reads 4.38; that for `NC(=O)[C@H]1CCCN1C(=O)[C@H](Cc1ccccc1)NC(=O)[C@H](CC(=O)O)NC(=O)[C@H](CC1CCCCC1)NC(=O)Cc1ccccc1` [1160.01] (PhAc-[Cha]DF[dP]-NH2), 213; that for `CC(C)C[C@H](NC(=O)Cc1ccccc1)C(=O)N[C@@H](CC(=O)O)C(=O)N[C@@H](Cc1ccccc1)C(=O)N1CCC(C(=O)O)CC1` [1111.04] (PhAc-LDF[Inp]-OH), 836.

The same assay, now with this note: compared with standard 10-mer of SEQ ID NO:3.
For `CC(C)C[C@H](NC(=O)[C@@H](N)Cc1ccccc1)C(=O)N[C@@H](CC(=O)O)C(=O)N[C@@H](Cc1ccccc1)C(=O)N1CCC[C@@H]1C(N)=O` [Compound ID No. 1092.01] (H-FLDF[dP]-NH2), the “VLA-4 binding inhibition compared in words” value is reported as “binding inhibition better than that of the compound of SEQ ID NO:3”.

The same assay, now with this note: relative to SEQ ID NO:3 = 1; potency before the prodrug compound is enzymatically converted to an active form.
With `CC(C)C[C@H](NC(=O)Cc1ccccc1)C(=O)N[C@@H](CC(=O)OCC(=O)OCc1ccccc1)C(=O)N[C@@H](Cc1ccccc1)C(=O)N1CCC[C@@H]1C(N)=O` [1067.01] (PhAc-LD(X7)F[dP]-NH2), the “Relative Potency (prodrug compound)” value is listed as “.97”. As for `CCCCCCCCCC(=O)OC1CCN(C(=O)[C@H](Cc2ccccc2)NC(=O)[C@H](CC(=O)O)NC(=O)[C@H](CC(C)C)NC(=O)Cc2ccccc2)CC1` [1068.06], the “Relative Potency (prodrug compound)” value is listed as “.63”. The same measure, in the same setting: the same measure for `CCCCCCCCCCCCCCOC(=O)C[C@H](NC(=O)[C@H](CC(C)C)NC(=O)Cc1ccccc1)C(=O)N[C@@H](Cc1ccccc1)C(=O)N1CCC[C@@H]1C(N)=O` [1068.11] (PhAc-LD(X1)F[dP]-NH2): 0.

Source of the values: US5770573A, “CS-1 peptidomimetics, compositions and methods of using the same” (Cytel Corporation, priority 1995, dated 1998).
